Experimental data as given in patent US9624208B2, “Benzoxazolinone compounds with selective activity in voltage-gated sodium channels” (Merck Sharp & Dohme Corp., priority 2012, dated 2017).

Experiments:
human Nav1.7 = target: T1, human Nav1.7 (Homo sapiens, UniProt Q15858); test: PatchXpress sodium current measurement, inactivated state block, Nav1.7; assay type: cell-based; details: channels stably expressed in HEK 293 cells, double-pulse protocol, 22° C., read-out: potency for the Nav 1.7 sodium ion channel (1.7=)
T1 construct: expressed in transfected cells
Protocol: (§1) Cell Based Assays for Nav 1.7 and Nav 1.5 Activity
(§2) Compounds were tested on human Nav1.7 and Nav1.5 channels stably expressed in HEK 293 cells.
(§3) Sodium Current Measurements on the PatchXpress 7000:
(§4) To measure inactivated state block of sodium channels, test compounds were characterized in an automated PatchXpress® assay (Molecular Devices) using a double-pulse protocol on human Nav1.7 and Nav1.5 channels stably expressed in HEK 293 cells. Cells were held at a potential 20 mV negative to the potential at which ˜50% of the channels are inactivated. A 8000 ms pre-pulse 7 mV positive to the potential at which ˜50% of the channels are inactivated was given followed by a hyperpolarizing 2 ms pulse to −120 mV and a 20 ms test pulse to −20 mV. The protocol was applied to cells in the absence, presence of compound and after washout. The temperature of PatchXpress® instruments was maintained at 22° C. The following recording solutions were used. Internal solution (mM): 30 CsCl, 5 HEPES, 10 EGTA, 120 CsF, 5 NaF, 2 MgCl2, pH 7.3 with CsOH. External solution (mM): 120 NMDG, 40 NaCl, 1 KCl, 0.5 MgCl2, 5 HEPES, 2.7 CaCl2, pH 7.5 with NMDG-OH. Estimated IC50 values were calculated based on at least two compound concentrations tested. For all electrophysiology experiments, offline analysis was used to correct for current rundown and to determine percent inhibition as a function of drug concentration. IC50 values were determined by fitting to the Hill equation.

human Nav1.5 = target: T2, human Nav1.5 (Homo sapiens, UniProt Q14524); test: PatchXpress sodium current measurement, inactivated state block, Nav1.5; assay type: cell-based; details: determined by PatchXpress measurement, HEK 293 cells
T2 construct: expressed in transfected cells
Protocol: as §1, §2, §3, §4

T2 sequence (Q14524 whole entry): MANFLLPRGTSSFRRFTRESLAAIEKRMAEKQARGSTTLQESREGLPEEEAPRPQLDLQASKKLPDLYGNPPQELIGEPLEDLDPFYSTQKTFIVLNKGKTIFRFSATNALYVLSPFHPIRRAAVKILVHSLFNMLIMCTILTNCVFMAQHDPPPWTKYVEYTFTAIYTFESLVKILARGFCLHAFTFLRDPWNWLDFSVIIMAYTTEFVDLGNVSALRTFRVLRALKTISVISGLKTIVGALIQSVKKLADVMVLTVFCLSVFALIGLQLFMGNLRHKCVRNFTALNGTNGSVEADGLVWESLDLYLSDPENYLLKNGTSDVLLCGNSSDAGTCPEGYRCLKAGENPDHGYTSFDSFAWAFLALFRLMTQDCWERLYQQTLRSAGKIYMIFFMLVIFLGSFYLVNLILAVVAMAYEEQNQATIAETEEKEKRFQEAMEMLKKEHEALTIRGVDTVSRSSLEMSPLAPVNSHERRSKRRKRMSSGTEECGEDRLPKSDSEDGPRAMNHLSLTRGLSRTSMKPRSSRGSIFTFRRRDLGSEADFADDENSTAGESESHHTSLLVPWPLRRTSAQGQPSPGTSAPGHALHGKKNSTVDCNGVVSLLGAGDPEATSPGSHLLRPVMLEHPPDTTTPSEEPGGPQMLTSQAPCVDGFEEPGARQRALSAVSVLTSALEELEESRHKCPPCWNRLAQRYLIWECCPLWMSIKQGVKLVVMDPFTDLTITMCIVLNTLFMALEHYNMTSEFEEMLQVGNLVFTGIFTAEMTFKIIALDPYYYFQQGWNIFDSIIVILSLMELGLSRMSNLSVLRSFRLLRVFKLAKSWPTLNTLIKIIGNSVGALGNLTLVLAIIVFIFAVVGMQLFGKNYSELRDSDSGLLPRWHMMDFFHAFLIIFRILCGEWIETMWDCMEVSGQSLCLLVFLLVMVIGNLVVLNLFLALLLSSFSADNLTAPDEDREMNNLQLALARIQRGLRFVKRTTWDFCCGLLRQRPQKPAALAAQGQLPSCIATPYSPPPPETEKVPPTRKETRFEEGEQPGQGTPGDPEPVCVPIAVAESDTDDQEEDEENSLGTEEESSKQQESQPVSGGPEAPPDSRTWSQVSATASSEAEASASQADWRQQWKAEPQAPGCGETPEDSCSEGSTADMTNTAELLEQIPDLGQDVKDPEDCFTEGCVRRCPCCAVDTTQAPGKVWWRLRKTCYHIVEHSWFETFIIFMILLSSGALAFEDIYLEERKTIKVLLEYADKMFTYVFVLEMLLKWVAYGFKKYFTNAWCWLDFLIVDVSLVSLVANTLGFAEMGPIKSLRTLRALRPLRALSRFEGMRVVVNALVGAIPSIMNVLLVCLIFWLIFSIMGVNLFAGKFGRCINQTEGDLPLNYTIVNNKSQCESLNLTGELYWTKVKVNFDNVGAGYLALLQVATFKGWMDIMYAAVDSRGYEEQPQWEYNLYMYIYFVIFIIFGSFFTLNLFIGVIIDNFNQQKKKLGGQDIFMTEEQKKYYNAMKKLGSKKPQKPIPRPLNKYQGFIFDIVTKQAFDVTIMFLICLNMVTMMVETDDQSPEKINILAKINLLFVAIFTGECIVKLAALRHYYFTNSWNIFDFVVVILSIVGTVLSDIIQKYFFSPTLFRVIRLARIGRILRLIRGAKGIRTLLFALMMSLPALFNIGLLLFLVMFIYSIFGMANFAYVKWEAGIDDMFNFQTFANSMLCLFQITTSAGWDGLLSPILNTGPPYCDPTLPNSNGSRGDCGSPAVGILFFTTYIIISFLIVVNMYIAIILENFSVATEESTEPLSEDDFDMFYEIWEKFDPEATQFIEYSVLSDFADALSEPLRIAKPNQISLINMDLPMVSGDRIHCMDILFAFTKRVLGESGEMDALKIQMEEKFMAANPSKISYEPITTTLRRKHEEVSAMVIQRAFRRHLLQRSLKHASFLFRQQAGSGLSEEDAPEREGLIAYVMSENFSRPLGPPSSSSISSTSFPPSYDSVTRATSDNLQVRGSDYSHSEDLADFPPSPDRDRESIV
T1 sequence (Q15858 whole entry): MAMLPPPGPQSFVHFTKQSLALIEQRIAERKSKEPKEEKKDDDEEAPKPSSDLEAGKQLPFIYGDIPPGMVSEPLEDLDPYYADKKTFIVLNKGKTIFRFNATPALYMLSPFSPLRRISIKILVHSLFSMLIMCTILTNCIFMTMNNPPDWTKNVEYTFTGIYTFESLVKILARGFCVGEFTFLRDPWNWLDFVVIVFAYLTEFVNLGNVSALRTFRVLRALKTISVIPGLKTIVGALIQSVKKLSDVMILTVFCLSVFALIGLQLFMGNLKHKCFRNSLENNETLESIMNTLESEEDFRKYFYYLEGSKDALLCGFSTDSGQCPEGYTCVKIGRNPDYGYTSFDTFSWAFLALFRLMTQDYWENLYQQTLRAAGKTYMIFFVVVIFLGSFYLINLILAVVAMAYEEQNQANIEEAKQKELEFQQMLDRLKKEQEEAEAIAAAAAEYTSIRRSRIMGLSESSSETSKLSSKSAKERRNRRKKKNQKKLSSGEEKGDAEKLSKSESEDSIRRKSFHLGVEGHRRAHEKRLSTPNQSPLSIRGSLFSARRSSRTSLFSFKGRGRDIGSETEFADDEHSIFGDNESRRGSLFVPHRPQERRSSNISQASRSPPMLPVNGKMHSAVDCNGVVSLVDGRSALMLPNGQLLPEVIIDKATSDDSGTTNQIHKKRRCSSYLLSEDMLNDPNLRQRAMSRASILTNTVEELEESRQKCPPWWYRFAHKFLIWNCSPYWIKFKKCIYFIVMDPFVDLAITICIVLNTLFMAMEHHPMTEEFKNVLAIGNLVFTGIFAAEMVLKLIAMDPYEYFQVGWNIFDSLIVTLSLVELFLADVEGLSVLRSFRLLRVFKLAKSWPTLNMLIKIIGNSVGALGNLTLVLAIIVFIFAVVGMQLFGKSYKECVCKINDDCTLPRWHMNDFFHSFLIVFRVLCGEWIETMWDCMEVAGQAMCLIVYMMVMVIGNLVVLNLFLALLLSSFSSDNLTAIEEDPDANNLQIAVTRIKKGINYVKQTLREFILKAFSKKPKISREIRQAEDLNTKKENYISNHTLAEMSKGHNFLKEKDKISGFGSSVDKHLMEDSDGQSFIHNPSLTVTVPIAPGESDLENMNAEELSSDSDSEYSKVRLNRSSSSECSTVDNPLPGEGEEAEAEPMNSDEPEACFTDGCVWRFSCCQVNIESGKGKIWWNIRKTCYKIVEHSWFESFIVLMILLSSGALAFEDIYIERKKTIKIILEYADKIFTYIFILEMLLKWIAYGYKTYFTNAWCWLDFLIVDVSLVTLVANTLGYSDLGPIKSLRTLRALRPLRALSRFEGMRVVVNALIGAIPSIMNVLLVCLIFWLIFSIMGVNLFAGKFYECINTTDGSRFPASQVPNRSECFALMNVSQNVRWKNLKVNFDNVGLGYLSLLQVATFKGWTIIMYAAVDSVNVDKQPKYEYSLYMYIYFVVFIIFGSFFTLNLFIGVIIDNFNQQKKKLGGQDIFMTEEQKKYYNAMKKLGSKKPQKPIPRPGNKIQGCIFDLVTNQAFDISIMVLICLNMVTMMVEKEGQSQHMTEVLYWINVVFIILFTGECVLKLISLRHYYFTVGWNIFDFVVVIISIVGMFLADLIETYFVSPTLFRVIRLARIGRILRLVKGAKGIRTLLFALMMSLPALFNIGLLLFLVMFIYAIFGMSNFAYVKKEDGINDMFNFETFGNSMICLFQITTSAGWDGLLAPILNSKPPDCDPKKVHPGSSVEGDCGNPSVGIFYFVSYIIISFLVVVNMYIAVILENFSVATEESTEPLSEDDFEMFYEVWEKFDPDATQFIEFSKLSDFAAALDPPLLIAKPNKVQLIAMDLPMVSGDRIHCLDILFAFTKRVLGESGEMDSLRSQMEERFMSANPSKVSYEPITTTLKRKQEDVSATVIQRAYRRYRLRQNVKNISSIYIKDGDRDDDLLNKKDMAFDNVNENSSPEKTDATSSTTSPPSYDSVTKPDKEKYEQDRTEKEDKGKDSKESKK

Structure (SMILES) | IC50 (human Nav1.7) [nM] | ratio of Nav 1.5:Nav 1.7 potency (human Nav1.5)
Nc1ccc2c(c1)C(n1c(=O)oc3cc(S(=O)(=O)Nc4cccc(F)n4)c(F)cc31)CCC2 (stereo not shown) [Ex4-4, 3-(7-Amino-1,2,3,4-tetrahydronaphthalen-1-yl)-5-fluoro-N-(6-fluoropyridin-2-yl)-2-oxo-2,3-dihydro-1,3-benzoxazole-6-sulfonamide] | 482 | 166
Cc1cc2c(cc1S(=O)(=O)Nc1cccc(F)n1)oc(=O)n2[C@H](C)c1cccc2c1CNCC2 [Ex17-4, (R)—N-(6-Fluoropyridin-2-yl)-5-methyl-2-oxo-3-(1-(1,2,3,4-tetrahydroisoquinolin-8-yl)ethyl)-2,3-dihydrobenzo[d]oxazole-6-sulfonamide] | 34 | 200
C[C@H](c1ccccc1C#CCN1CCC1)n1c(=O)oc2cc(S(=O)(=O)Nc3cccc(F)n3)c(F)cc21 [Ex8-10, 3-{(1R)-1-[2-(3-azetidin-1-ylprop-1-yn-1-yl)phenyl]ethyl}-5-fluoro-N-(6-fluoropyridin-2-yl)-2-oxo-2,3-dihydro-1,3-benzoxazole-6-sulfonamide] | 236 | 127
C[C@H](c1ccccc1C1=CCNCC1)n1c(=O)oc2cc(S(=O)(=O)Nc3cccc(F)n3)c(F)cc21 [Ex7-5, (R)-5-Fluoro-N-(6-fluoropyridin-2-yl)-2-oxo-3-(1-(2-(1,2,3,6-tetrahydropyridin-4-yl)phenyl)ethyl)-2,3-dihydrobenzo[d]oxazole-6-sulfonamide] | 3 | 1398
C[C@H](c1ccccc1C#CCN)n1c(=O)oc2cc(S(=O)(=O)Nc3cccc(F)n3)c(F)cc21 [Ex8-1, (R)-3-(1-(2-(3-Aminoprop-1-yn-1-yl)phenyl)ethyl)-5-fluoro-N-(6-fluoropyridin-2-yl)-2-oxo-2,3-dihydrobenzo[d]oxazole-6-sulfonamide] | 50 | 546
C[C@H](c1ccccc1C1(F)CNC1)n1c(=O)oc2cc(S(=O)(=O)Nc3cccc(F)n3)c(F)cc21 [Ex12-6, (R)-5-Fluoro-3-(1-(2-(3-fluoroazetidin-3-yl)phenyl)ethyl)-N-(6-fluoropyridin-2-yl)-2-oxo-2,3-dihydrobenzo[d]oxazole-6-sulfonamide] | 46 | 648
C[C@H](c1ccccc1C1(O)CNC1)n1c(=O)oc2cc(S(=O)(=O)Nc3cccc(F)n3)c(F)cc21 [Ex12-4, (R)-5-Fluoro-N-(6-fluoropyridin-2-yl)-3-(1-(2-(3-hydroxyazetidin-3-yl)phenyl)ethyl)-2-oxo-2,3-dihydrobenzo[d]oxazole-6-sulfonamide] | 400 | 75
C[C@H](c1ccccc1C#CCN(C)C)n1c(=O)oc2cc(S(=O)(=O)Nc3cccc(F)n3)c(F)cc21 [Ex8-9, 3-[(1R)-1-{2-[3-(dimethylamino)prop-1-yn-1-yl]phenyl}ethyl]-5-fluoro-N-(6-fluoropyridin-2-yl)-2-oxo-2,3-dihydro-1,3-benzoxazole-6-sulfonamide] | 273 | 99
O=c1oc2cc(S(=O)(=O)Nc3cccc(F)n3)c(F)cc2n1Cc1cccc2c1CNCC2F (single isomer, unassigned; enantiomer 1) [Ex5-10, (R or S)-5-fluoro-N-(6-fluoropyridin-2-yl)-3-[(4-fluoro-1,2,3,4-tetrahydroisoquinolin-8-yl)methyl]-2-oxo-2,3-dihydro-1,3-benzoxazole-6-sulfonamide (enantiomer 1)] | 961 | > 31
C[C@H](c1ccccc1CN(C)C)n1c(=O)oc2cc(S(=O)(=O)Nc3cccc(F)n3)c(F)cc21 [Ex9-2, 3-[(1R)-1-{2-[(dimethylamino)methyl]phenyl}ethyl]-5-fluoro-N-(6-fluoropyridin-2-yl)-2-oxo-2,3-dihydro-1,3-benzoxazole-6-sulfonamide] | 124 | 84
O=c1oc2cc(S(=O)(=O)Nc3cccc(F)n3)c(F)cc2n1C1CCCc2ccc(F)cc21 (stereo not shown) [Ex4-5, 5-fluoro-N-(6-fluoropyridin-2-yl)-3-(7-fluoro-1,2,3,4-tetrahydronaphthalen-1-yl)-2-oxo-2,3-dlihydro-1,3-benzoxazole-6-sulfonamide] | 650 | 101

Continued, in another order:

IC50 (human Nav1.7) [nM] | Structure (SMILES) | ratio of Nav 1.5:Nav 1.7 potency (human Nav1.5)
70 | Cc1cc2c(cc1S(=O)(=O)Nc1cccc(F)n1)oc(=O)n2[C@H](C)c1cccc(CCCN)c1 [Ex22-2, 3-{(1R)-1-[3-(3-amino-propyl)phenyl]ethyl}-N-(6-fluoropyridin-2-yl)-5-methyl-2-oxo-2,3-dihydro-1,3-benzoxazole-6-sulfonamide] | 305
155 | C[C@H](c1cccc(C#CCN)c1)n1c(=O)oc2cc(S(=O)(=O)Nc3cccc(F)n3)c(F)cc21 [Ex21-21, 3-{(1R)-1-[3-(3-aminoprop-1-yn-1-yl)phenyl]ethyl}-5-fluoro-N-(6-fluoropyridin-2-yl)-2-oxo-2,3-dihydro-1,3-benzoxazole-6-sulfonamide] | 193
382 | C[C@H](c1cccc(C#CCNC2CCCCC2)c1)n1c(=O)oc2cc(S(=O)(=O)Nc3cccc(F)n3)c(F)cc21 [Ex21-6, 3-[(1R)-1-{3-[3-(cyclohexylamino)prop-1-yn-1-yl]phenyl}ethyl]-5-fluoro-N-(6-fluoropyridin-2-yl)-2-oxo-2,3-dihydro-1,3-benzoxazole-6-sulfonamide] | 27
118 | C[C@H](c1cccc(C#CC2CCCC2N)c1)n1c(=O)oc2cc(S(=O)(=O)Nc3cccc(F)n3)c(F)cc21 (stereo partly drawn) [Ex21-18, 3-[(1R)-1-{3-[(2-aminocyclopentyl)ethynyl]phenyl}ethyl]-5-fluoro-N-(6-fluoropyridin-2-yl)-2-oxo-2,3-dihydro-1,3-benzoxazole-6-sulfonamide] | 64
35 | Cc1cccc([C@@H](C)n2c(=O)oc3cc(S(=O)(=O)Nc4cccc(F)n4)c(F)cc32)c1C1CCCN1 (stereo partly drawn) [Ex20-2, 5-fluoro-N-(6-fluoropyridin-2-yl)-3-{(1R)-1-[3-methyl-2-(pyrrolidin-2-yl)phenyl]ethyl}-2-oxo-2,3-dihydro-1,3-benzoxazole-6-sulfonamide] | 272
24 | Cc1cc2c(cc1S(=O)(=O)Nc1cccc(F)n1)oc(=O)n2Cc1cccc2c1CC(N)CC2 (single isomer, unassigned) [Ex17-5, (R or S)-3-[(7-amino-5,6,7,8-tetrahydronaphthalen-1-yl)methyl]-N-(6-fluoropyridin-2-yl)-5-methyl-2-oxo-2,3-dihydro-1,3-benzoxazole-6-sulfonamide] | 310
337 | C[C@H](c1cccc(C#CCN2CCCC2)c1)n1c(=O)oc2cc(S(=O)(=O)Nc3cccc(F)n3)c(F)cc21 [Ex21-7, 5-fluoro-N-(6-fluoropyridin-2-yl)-2-oxo-3-[(1R)-1-{3-[3-(pyrrolidin-1-yl)prop-1-yn-1-yl]phenyl}ethyl]-2,3-dihydro-1,3-benzoxazole-6-sulfonamide] | 89
136 | Cc1c(C#CCN)cccc1[C@@H](C)n1c(=O)oc2cc(S(=O)(=O)Nc3cccc(F)n3)c(F)cc21 [Ex21-22, 3-{(1R)-1-[3-(3-aminoprop-1-yn-1-yl)-2-methylphenyl]ethyl}-5-fluoro-N-(6-fluoropyridin-2-yl)-2-oxo-2,3-dihydro-1,3-benzoxazole-6-sulfonamide] | 220
98 | C[C@H](c1ccccc1C1CCCN1)n1c(=O)oc2cc(S(=O)(=O)Nc3cccc(F)n3)c(F)cc21 (stereo partly drawn) [Ex20-1, 5-fluoro-N-(6-fluoropyridin-2-yl)-2-oxo-3-{(1R)-1-[2-(pyrrolidin-2-yl)phenyl]ethyl}-2,3-dihydro-1,3-benzoxazole-6-sulfonamide] | 120
49 | Cc1cc2c(cc1S(=O)(=O)Nc1cccc(F)n1)oc(=O)n2[C@H](C)c1ccccc1CN [Ex17-7, 3-{(1R)-1-[2-(aminomethyl)phenyl]ethyl}-N-(6-fluoropyridin-2-yl)-5-methyl-2-oxo-2,3-dihydro-1,3-benzoxazole-6-sulfonamide] | 147
808 | C[C@H](c1cccc(C#CCN(C)C)c1)n1c(=O)oc2cc(S(=O)(=O)Nc3cccc(F)n3)c(F)cc21 [Ex21-3, 3-[(1R)-1-{3-[3-(dimethylamino)prop-1-yn-1-yl]phenyl}ethyl]-5-fluoro-N-(6-fluoropyridin-2-yl)-2-oxo-2,3-dihydro-1,3-benzoxazole-6-sulfonamide] | 37
407 | C[C@H](c1cccc(C#CC2CCCCN2)c1)n1c(=O)oc2cc(S(=O)(=O)Nc3cccc(F)n3)c(F)cc21 (stereo partly drawn) [Ex21-9, 5-fluoro-N-(6-fluoropyridin-2-yl)-2-oxo-3-{(1R)-1-[3-(piperidin-2-ylethynyl)phenyl]ethyl}-2,3-dihydro-1,3-benzoxazole-6-sulfonamide] | 74
